Reference: the NIST ThermoML archive (doi:10.1016/j.jct.2012.11.014)
± gives the expanded uncertainty stated by the source.

How the values were obtained:
[1] = for speed of sound / viscosity / mass density: 101 kPa, Liquid; for speed of sound: Frequency=2 MHz, Linear variable-path acoustic interferometer; for viscosity: Oscillating disk viscometry; for mass density: Vibrating tube method; for Normal melting temperature: Crystal, visual observation
[2] = xn = mol fraction of the nth substance listed; conditions: 101 kPa, Liquid, x2 = 0; for speed of sound: Frequency=2 MHz, Linear variable-path acoustic interferometer; for viscosity: Oscillating disk viscometry; for mass density: Vibrating tube method

C[S+](C)[O-] [dimethyl sulfoxide]
speed of sound ([1]; 298.15 K): 1496 ± 3 m/s | viscosity ([1]; 298.15 K): 1.99 ± 0.13 mPa·s | mass density ([1]; 298.15 K): 1095.37 ± 1 kg/m3 | speed of sound ([1]; 303.15 K): 1472 ± 3 m/s | viscosity ([1]; 303.15 K): 1.8 ± 0.11 mPa·s | mass density ([1]; 303.15 K): 1092.41 ± 1 kg/m3 | speed of sound ([1]; 308.15 K): 1460 ± 3 m/s | viscosity ([1]; 308.15 K): 1.65 ± 0.1 mPa·s | mass density ([1]; 308.15 K): 1086.06 ± 1 kg/m3 | speed of sound ([1]; 313.15 K): 1442 ± 3 m/s | viscosity ([1]; 313.15 K): 1.54 ± 0.1 mPa·s | mass density ([1]; 313.15 K): 1081.43 ± 1 kg/m3

C[S+](C)[O-] [dimethyl sulfoxide] + CC(=O)[O-].C[NH+](C)C
speed of sound ([2]; 298.15 K): 1496 ± 3 m/s | viscosity ([2]; 298.15 K): 1.99 ± 0.13 mPa·s | mass density ([2]; 298.15 K): 1095.37 ± 1 kg/m3 | speed of sound ([2]; 303.15 K): 1472 ± 3 m/s | viscosity ([2]; 303.15 K): 1.8 ± 0.11 mPa·s | mass density ([2]; 303.15 K): 1092.41 ± 1 kg/m3 | speed of sound ([2]; 308.15 K): 1460 ± 3 m/s | viscosity ([2]; 308.15 K): 1.65 ± 0.1 mPa·s | mass density ([2]; 308.15 K): 1086.06 ± 1 kg/m3 | speed of sound ([2]; 313.15 K): 1442 ± 3 m/s | viscosity ([2]; 313.15 K): 1.54 ± 0.1 mPa·s | mass density ([2]; 313.15 K): 1081.43 ± 1 kg/m3

C[S+](C)[O-] [dimethyl sulfoxide] + C[NH+](C)C.O=P([O-])(O)O
speed of sound ([2]; 298.15 K): 1496 ± 3 m/s | viscosity ([2]; 298.15 K): 1.99 ± 0.13 mPa·s | mass density ([2]; 298.15 K): 1095.37 ± 1 kg/m3 | speed of sound ([2]; 303.15 K): 1472 ± 3 m/s | viscosity ([2]; 303.15 K): 1.8 ± 0.11 mPa·s | mass density ([2]; 303.15 K): 1092.41 ± 1 kg/m3 | speed of sound ([2]; 308.15 K): 1460 ± 3 m/s | viscosity ([2]; 308.15 K): 1.65 ± 0.1 mPa·s | mass density ([2]; 308.15 K): 1086.06 ± 1 kg/m3 | speed of sound ([2]; 313.15 K): 1442 ± 3 m/s | viscosity ([2]; 313.15 K): 1.54 ± 0.1 mPa·s | mass density ([2]; 313.15 K): 1081.43 ± 1 kg/m3

C[S+](C)[O-] [dimethyl sulfoxide] + C[NH+](C)C.O=S(=O)([O-])O
speed of sound ([2]; 298.15 K): 1496 ± 3 m/s | viscosity ([2]; 298.15 K): 1.99 ± 0.13 mPa·s | mass density ([2]; 298.15 K): 1095.37 ± 1 kg/m3 | speed of sound ([2]; 303.15 K): 1472 ± 3 m/s | viscosity ([2]; 303.15 K): 1.8 ± 0.11 mPa·s | mass density ([2]; 303.15 K): 1092.41 ± 1 kg/m3 | speed of sound ([2]; 308.15 K): 1460 ± 3 m/s | viscosity ([2]; 308.15 K): 1.65 ± 0.1 mPa·s | mass density ([2]; 308.15 K): 1086.06 ± 1 kg/m3 | speed of sound ([2]; 313.15 K): 1442 ± 3 m/s | viscosity ([2]; 313.15 K): 1.54 ± 0.1 mPa·s | mass density ([2]; 313.15 K): 1081.43 ± 1 kg/m3

CC(=O)[O-].C[NH+](C)C [trimethylammonium acetate]
speed of sound ([1]; 298.15 K): 1544 ± 3 m/s | viscosity ([1]; 298.15 K): 2.76 ± 0.18 mPa·s | mass density ([1]; 298.15 K): 1053.85 ± 1 kg/m3 | speed of sound ([1]; 303.15 K): 1514 ± 3 m/s | viscosity ([1]; 303.15 K): 2.37 ± 0.16 mPa·s | mass density ([1]; 303.15 K): 1049.87 ± 1 kg/m3 | speed of sound ([1]; 308.15 K): 1508 ± 3 m/s | viscosity ([1]; 308.15 K): 2.06 ± 0.14 mPa·s | mass density ([1]; 308.15 K): 1045.81 ± 1 kg/m3 | speed of sound ([1]; 313.15 K): 1490 ± 3 m/s | viscosity ([1]; 313.15 K): 1.83 ± 0.12 mPa·s | mass density ([1]; 313.15 K): 1041.7 ± 1 kg/m3

C[NH+](C)C.O=P([O-])(O)O [trimethylammonium dihydrogen phosphate]
speed of sound ([1]; 298.15 K): 1672 ± 3 m/s | viscosity ([1]; 298.15 K): 7.64 ± 0.52 mPa·s | mass density ([1]; 298.15 K): 1353.61 ± 1.1 kg/m3 | speed of sound ([1]; 303.15 K): 1660 ± 3 m/s | viscosity ([1]; 303.15 K): 6.46 ± 0.44 mPa·s | mass density ([1]; 303.15 K): 1350.62 ± 1.1 kg/m3 | speed of sound ([1]; 308.15 K): 1661 ± 3 m/s | viscosity ([1]; 308.15 K): 5.61 ± 0.37 mPa·s | mass density ([1]; 308.15 K): 1347.59 ± 1.1 kg/m3 | speed of sound ([1]; 313.15 K): 1664 ± 3 m/s | viscosity ([1]; 313.15 K): 5.07 ± 0.32 mPa·s | mass density ([1]; 313.15 K): 1344.52 ± 1.1 kg/m3 | Normal melting temperature [1]: 116.00 ± 1 °C

C[NH+](C)C.O=S(=O)([O-])O [trimethylammonium hydrogen sulfate]
speed of sound ([1]; 298.15 K): 1564 ± 3 m/s | viscosity ([1]; 298.15 K): 5.1 ± 0.33 mPa·s | mass density ([1]; 298.15 K): 1467.58 ± 1.2 kg/m3 | speed of sound ([1]; 303.15 K): 1560 ± 3 m/s | viscosity ([1]; 303.15 K): 4.48 ± 0.29 mPa·s | mass density ([1]; 303.15 K): 1463.57 ± 1.2 kg/m3 | speed of sound ([1]; 308.15 K): 1556 ± 3 m/s | viscosity ([1]; 308.15 K): 3.94 ± 0.27 mPa·s | mass density ([1]; 308.15 K): 1463.5 ± 1.2 kg/m3 | speed of sound ([1]; 313.15 K): 1552 ± 3 m/s | viscosity ([1]; 313.15 K): 3.16 ± 0.25 mPa·s | mass density ([1]; 313.15 K): 1455.63 ± 1.2 kg/m3 | Normal melting temperature [1]: 129.00 ± 1 °C
